Data from patent publication US12331022B2, “Spiropiperidine allosteric modulators of nicotinic acetylcholine receptors” (Merck Sharp & Dohme LLC, priority 2019, dated 2025).
Read-outs that look alike come from different tables or passages of the source.

Target: T1, human α7 nAChR (Homo sapiens, UniProt P36544)
T1 construct: host or cells: HEK
Experiment: Automated patch-clamp electrophysiology functional assay (Assay A)
Type: cell-based
Conditions: HEK cell line stably expressing human RIC-3 and human α7, IonFlux HT whole-cell population patch, with or without 40 μM acetylcholine
Experimental: The α7 nAChR positive allosteric modulator (PAM) activity of the present compounds may be tested using assays known in the art. The α7 nAChR PAMs described herein have activities in an automated patch-clamp electrophysiology functional assay as described in the examples. The assay was performed using the IonFlux HT in a whole-cell, population patch configuration. See Golden et al. Assay Drug Dev. Technol. (2011) 9:608-619. The compounds were assessed for their ability to modulate the function of the human α7 nAChR stably expressed in a HEK cell line both in the presence, and in the absence of the natural α7 agonist acetylcholine. By performing a series of such measurements at different concentrations, the effective concentration of the α7 nAChR PAMs (EC50) was determined. See Spencer et al. Assay Drug Dev. Technol. (2012) 10:313-324.
Direct activation of α7 (agonism), and potentiation of acetylcholine-evoked α7 currents was determined as follows:
Automated patch-clamp electrophysiology was performed using the IonFlux HT (Fluxion Biosciences Inc., San Francisco, CA) in the whole-cell, population patch configuration. Test compounds were assessed for their ability to modulate the function of the α7 nicotinic acetylcholine receptor both in the presence, and in the absence of the natural α7 agonist acetylcholine. A HEK cell line stably expressing both human RIC-3 and human α7 (PrecisION hnAChR α7/RIC-3, Eurofins Pharma, St. Charles, MO) was cultured in 175 cm^2 triple-layer tissue culture flasks to no more than 90% confluency in DMEM/F-12 growth media supplemented with 10% heat-inactivated fetal bovine serum, 1% non-essential amino acids, 0.625 μg/mL Puromycin, and 400 μg/mL Geneticin. Immediately prior to assay, cells were detached by first aspirating growth media, rinsing with Dulbecco's phosphate buffered saline, and then adding 10 mL of Accutase (Innovative Cell Technologies, San Diego, CA) to the flask and then incubating at 37° C. for 5 minutes. Detached cells were then recovered by the addition of 40 mL of CHO-serum-free media supplemented with 25 mM HEPES, and rocked gently in a 50 mL conical tube for 20 minutes prior to patch-clamp assay. After recovery, cells were pelleted by centrifugation at 1,000 RPM for 1 minute in a compact bench top centrifuge; recovery media was aspirated and cells were resuspended in external recording solution (150 mM NaCl, 5 mM KCl, 2 mM CaCl2, 1 mM MgCl2, 10 mM HEPES, 12 mM dextrose) to a density of 5.0×10^6 cells/mL. The cell suspension was added to the cell inlet wells on an IonFlux HT population patch plate which had previously been rinsed and primed with deionized H2O. Test compounds were serially diluted in DMSO and then resuspended to the final test concentration in external recording solution, with, or without 40 μM acetylcholine added to the external recording solution; test compounds were then transferred to the IonFlux HT population patch plate. Internal recording solution (110 mM TrisPO4, 28 mM TrisBase, 0.1 mM CaCl2, 2 mM MgCl2, 11 mM EGTA, 4 mM MgATP) was added to the internal recording solution inlet wells on the IonFlux HT patch plate previously loaded with cells and test compounds, and the plate loaded into the IonFlux HT instrument. A protocol was executed on the IonFlux HT to trap the cells, break into the cells, and establish the whole-cell recording configuration; cells were voltage-clamped at a holding potential of −60 mV for the duration of the experiment, all experiments were conducted at room temperature, and the IonFlux HT injection pressure was 8 psi for solution applications. Upon establishing the whole-cell configuration, external recording solution was perfused into the recording chambers for 120 seconds and then 40 μM acetylcholine was applied for 1 second and immediately washed off with external recording solution for 60 seconds. […]

T1 sequence (P36544 23-502): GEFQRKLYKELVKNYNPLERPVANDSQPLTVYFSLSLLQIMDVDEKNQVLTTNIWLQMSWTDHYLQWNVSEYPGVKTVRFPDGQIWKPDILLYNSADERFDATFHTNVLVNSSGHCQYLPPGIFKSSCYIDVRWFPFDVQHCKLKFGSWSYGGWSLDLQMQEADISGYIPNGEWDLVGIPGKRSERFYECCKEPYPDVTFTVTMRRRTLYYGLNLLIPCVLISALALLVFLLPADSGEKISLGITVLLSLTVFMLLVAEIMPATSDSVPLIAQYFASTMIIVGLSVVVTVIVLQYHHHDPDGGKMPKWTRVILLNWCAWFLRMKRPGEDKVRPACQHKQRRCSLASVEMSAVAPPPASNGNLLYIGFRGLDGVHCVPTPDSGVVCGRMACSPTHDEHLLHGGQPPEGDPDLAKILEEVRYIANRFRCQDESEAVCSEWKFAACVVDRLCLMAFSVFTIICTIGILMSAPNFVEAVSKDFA

Structure (SMILES) | EC50 (read-out: α7 nAChR Potency) | EC50 (read-out: α7 nAChR EC50)
COc1cc(OC[C@@H]2CC23CCN(S(N)(=O)=O)CC3)ccc1F [Example A4, (1R)-1-[(4-fluoro-3-methoxyphenoxy)methyl]-6-azaspiro[2.5]octane-6-sulfonamide] | 500 to 5000 nM | –
COc1ccc(Cl)cc1NC(=O)[C@@H]1C(F)(F)C12CCN(S(N)(=O)=O)CC2 [Example 15, (1R)—N-(5-Chloro-2-methoxyphenyl)-2,2-difluoro-6-sulfamoyl-6-azaspiro[2.5]octane-1-carboxamide] | ≤ 100 nM | 63 nM
NS(=O)(=O)N1CCC2(CC1)C(COc1cccc(OCC(F)(F)F)c1)C2(F)F (single isomer, unassigned) [Example A30, 1,1-difluoro-2-{[3-(2,2,2-trifluoroethoxy)phenoxy]methyl}-6-azaspiro[2.5]octane-6-sulfonamide] | ≤ 100 nM | 58 nM
NS(=O)(=O)N1CCC2(CC1)CC2COc1ccnc(OCC(F)(F)F)c1 (racemic) [Example A32, 1-({[2-(2,2,2-trifluoroethoxy)pyridin-4-yl]oxy}methyl)-6-azaspiro[2.5]octane-6-sulfonamide] | 100 to 500 nM | 140 nM
NS(=O)(=O)N1CCC2(CC1)C[C@H]2COc1cccc(NCC(F)(F)F)n1 [Example 10, (1R)-1-[({6-[(2,2,2-Trifluoroethyl)amino]pyridin-2-yl}oxy)methyl]-6-azaspiro[2.5]octane-6-sulfonamide] | ≤ 100 nM | 74 nM
NS(=O)(=O)N1CCC2(CC1)C(COc1ccnc(OC(F)F)c1)C2(F)F (single isomer, unassigned) [Example 2, 2-({[2-(Difluoromethoxy)pyridin-4-yl]oxy}methyl)-1,1-difluoro-6-azaspiro[2.5]octane-6-sulfonamide] | ≤ 100 nM | 71 nM
COc1ccc(Cl)cc1NC[C@@H]1CC12CCN(S(N)(=O)=O)CC2 [Example 14, (1R)-1-{[(5-Chloro-2-methoxyphenyl)amino]methyl}-6-azaspiro[2.5]octane-6-sulfonamide] | ≤ 100 nM | 48 nM
NS(=O)(=O)N1CCC2(CC1)C(COc1ccc(F)cc1C(F)(F)F)C2(F)F (single isomer, unassigned) [Example A10, 1,1-difluoro-2-{[4-fluoro-2-(trifluoromethyl)phenoxy]methyl}-6-azaspiro[2.5]octane-6-sulfonamide] | 500 to 5000 nM | 1500 nM
NS(=O)(=O)N1CCC2(CC1)CC2COc1cccc(OCC(F)(F)F)c1 (stereo not drawn) [Example 7, 1-{[3-(2,2,2-Trifuoroethoxy)phenoxy]methyl}-6-azaspiro[2.5]octane-6-sulfonamide] | 100 to 500 nM | 330 nM
NS(=O)(=O)N1CCC2(CC1)C(COc1ccnc(OCC(F)(F)F)c1)C2(F)F (single isomer, unassigned) [Example A33, 1,1-difluoro-2-({[2-(2,2,2-trifluoroethoxy)pyridin-4-yl]oxy}methyl)-6-azaspiro[2.5]octane-6-sulfonamide] | ≤ 100 nM | 20 nM
NS(=O)(=O)N1CCC2(CC1)C(COc1cccc(OC(F)F)c1)C2(F)F (single isomer, unassigned) [Example A29, 2-{[3-(difluoromethoxy)phenoxy]methyl}-1,1-difluoro-6-azaspiro[2.5]octane-6-sulfonamide] | 100 to 500 nM | 310 nM
NS(=O)(=O)N1CCC2(CC1)C(COc1noc(-c3ccccc3)n1)C2(F)F (single isomer, unassigned) [Example 6, 1,1-Difluoro-2-{[(5-phenyl-1,2,4-oxadiazol-3-yl)oxy]methyl}-6-azaspiro[2.5]octane-6-sulfonamide] | ≤ 100 nM | 49 nM
NS(=O)(=O)N1CCC2(CC1)C[C@@H]2COc1noc(-c2ccccc2)n1 [Example A13, (1S)-1-{[(5-phenyl-1,2,4-oxadiazol-3-yl)oxy]methyl}-6-azaspiro[2.5]octane-6-sulfonamide] | 500 to 5000 nM | 4100 nM

The next lines start with the values.

EC50 (read-out: α7 nAChR Potency) | EC50 (read-out: α7 nAChR EC50) | Structure (SMILES)
100 to 500 nM | – | NS(=O)(=O)N1CCC2(CC1)C(COc1cccc(OCC(F)(F)F)n1)C2(F)F (single isomer, unassigned) [Example A41, 1,1-difluoro-2-({[6-(2,2,2-trifluoroethoxy)pyridin-2-yl]oxy}methyl)-6-azaspiro[2.5]octane-6-sulfonamide]
≤ 100 nM | 74 nM | NS(=O)(=O)N1CCC2(CC1)C[C@H]2COc1cccc(OCC(F)(F)F)n1 [Example A37, (1R)-1-({[6-(2,2,2-trifluoroethoxy)pyridin-2-yl]oxy}methyl)-6-azaspiro[2.5]octane-6-sulfonamide]
500 to 5000 nM | 1200 nM | NS(=O)(=O)N1CCC2(CC1)C(COc1cccnc1OCC(F)(F)F)C2(F)F (single isomer, unassigned) [Example A36, 1,1-difluoro-2-({[2-(2,2,2-trifluoroethoxy)pyridin-3-yl]oxy}methyl)-6-azaspiro[2.5]octane-6-sulfonamide]
100 to 500 nM | 250 nM | Cc1ccn(-c2cccc(OC[C@@H]3CC34CCN(S(N)(=O)=O)CC4)n2)n1 [Example A50, (1R)-1-({[6-(3-methyl-1H-pyrazol-1-yl)pyridin-2-yl]oxy}methyl)-6-azaspiro[2.5]octane-6-sulfonamide]
500 to 5000 nM | 540 nM | NS(=O)(=O)N1CCC2(CC1)C(COc1cccnc1OCC(F)(F)F)C2(F)F (single isomer, unassigned) [Example A35, 1,1-difluoro-2-({[2-(2,2,2-trifluoroethoxy)pyridin-3-yl]oxy}methyl)-6-azaspiro[2.5]octane-6-sulfonamide]
500 to 5000 nM | 2000 nM | NS(=O)(=O)N1CCC2(CC1)C(CSc1nnnn1-c1ccccc1)C2(F)F (single isomer, unassigned) [Example A62, 1,1-difluoro-2-{[(1-phenyl-1H-tetrazol-5-yl)sulfanyl]methyl}-6-azaspiro[2.5]octane-6-sulfonamide]
100 to 500 nM | 120 nM | COc1ccc(Cl)cc1OCC1CC12CCN(S(N)(=O)=O)CC2 (racemic) [Example A42, 1-[(5-chloro-2-methoxyphenoxy)methyl]-6-azaspiro[2.5]octane-6-sulfonamide]
500 to 5000 nM | 640 nM | CC(C)c1cccc(OC[C@@H]2CC23CCN(S(N)(=O)=O)CC3)n1 [Example A53, (1R)-1-({[6-(propan-2-yl)pyridin-2-yl]oxy}methyl)-6-azaspiro[2.5]octane-6-sulfonamide]
500 to 5000 nM | 720 nM | NS(=O)(=O)N1CCC2(CC1)C[C@@H]2COc1cccc(OCC(F)(F)F)n1 [Example A38, (1S)-1-({[6-(2,2,2-trifluoroethoxy)pyridin-2-yl]oxy}methyl)-6-azaspiro[2.5]octane-6-sulfonamide]
5000 to 50000 nM | – | CS(=O)(=O)c1cccc(OC[C@@H]2CC23CCN(S(N)(=O)=O)CC3)n1 [Example A45, (1R)-1-({[6-(methylsulfonyl)pyridin-2-yl]oxy}methyl)-6-azaspiro[2.5]octane-6-sulfonamide]
500 to 5000 nM | 550 nM | NS(=O)(=O)N1CCC2(CC1)C(COc1ccnc(OCC(F)(F)F)c1)C2(F)F (single isomer, unassigned) [Example A34, 1,1-difluoro-2-({[2-(2,2,2-trifluoroethoxy)pyridin-4-yl]oxy}methyl)-6-azaspiro[2.5]octane-6-sulfonamide]
